Key:
His-AKT (Full Length) = His-AKT (Full Length) (Homo sapiens (Human), UniProt P31749); assay: AKT enzyme assay; assay type: biochemical; details: 160 uM ATP
Experimental: A TTP Mosquito liquid handling instrument was used to place 125 nl of the appropriate concentration of inhibitor in 100% DMSO (for a dose response curve calculation) into each well of a 384-well plate. To this reaction components were added to a final volume of 12.5 μl: • 0.1 ng/μl His-AKT (Full Length), (Invitrogen, Part # P2999, Lot #641228C). • 160 uM ATP (Fluka, 02055) • 1 mM DTT (Sigma, D0632) • 1 mM MgCl2 (Sigma, M1028) • 1 μM substrate peptide (sequence FITC-AHA-GRPRTSSFAEG-NH2), synthesized by Tufts Peptide Synthesis service. • 100 mM HEPES pH 7.5 (Calbiochem, 391338) • 0.015% Brij-35 (Sigma, B4184)
The reaction was incubated for 90 min at 25 C., and then stopped by the addition of 70 μl of Stop buffer (100 mM HEPES pH 7.5, 0.015% Brij-35, 10 mM EDTA (Sigma, E7889)).
The plate was read on a Caliper LC 3000 in an Off-Chip mobility shift assay format, using the following parameters for a 12-sipper chip: screening pressure −2.3 psi, upstream voltage −500, and downstream voltage −3000. These conditions caused unphosphorylated substrate and phosphorylated product peptide to resolve as separate peaks allowing direct measurement of percentage of conversion of substrate to product.
The percent conversion was plotted against concentration of inhibitor to produce a sigmoidal dose response curve, from which an IC50 was calculated.

P70S6K (T412E mutant) = P70S6K (T412E mutant) (Homo sapiens (Human), UniProt P23443, T412E); assay: P70S6K enzyme assay; assay type: biochemical; details: 24 μM ATP
Experimental: P70S6K inhibitor compounds were diluted and plated in 96 well plates. A reaction mixture including the following components was then added to the compound plate to initiate the enzyme reaction; P70S6K (3 nM, T412E mutant, Millipore) was mixed with 24 μM ATP in an assay buffer containing 100 mM Hepes (pH 7.5), 5 mM MgCl2, 1 mM DTT, 0.015% Brij and 1 μM of the substrate peptide FITC-AHA-AKRRRLSSLRA-OH (derived from the S6 ribosomal protein sequence, FITC=fluorescein isothiocyanate, AHA=6-aminohexanoic acid). The reaction was incubated for 90 min at 25° C., before the addition of 10 mM EDTA to stop the reaction. The proportion of substrate and product (phosphorylated) peptide was analysed on a Caliper Life Sciences Lab Chip 3000, using a pressure of −1.4 psi, and upstream and downstream voltages of −3000 and −700 respectively. Product peaks were resolved before substrate peaks on the resulting chromatograms.

Chain of His-AKT (Full Length) (P31749 whole entry): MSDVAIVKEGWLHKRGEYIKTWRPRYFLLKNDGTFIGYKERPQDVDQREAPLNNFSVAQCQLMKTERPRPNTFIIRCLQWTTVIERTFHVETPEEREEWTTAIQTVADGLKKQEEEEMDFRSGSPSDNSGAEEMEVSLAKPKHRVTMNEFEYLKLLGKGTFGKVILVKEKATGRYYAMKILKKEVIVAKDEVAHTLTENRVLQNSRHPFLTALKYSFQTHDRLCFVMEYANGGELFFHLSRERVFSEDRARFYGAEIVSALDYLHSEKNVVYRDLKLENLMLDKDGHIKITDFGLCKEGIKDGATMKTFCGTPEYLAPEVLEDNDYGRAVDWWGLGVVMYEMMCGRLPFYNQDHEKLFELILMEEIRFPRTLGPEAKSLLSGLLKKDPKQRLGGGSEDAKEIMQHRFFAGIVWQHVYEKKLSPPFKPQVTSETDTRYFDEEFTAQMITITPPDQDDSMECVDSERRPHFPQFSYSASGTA
Chain of P70S6K (T412E mutant) (P23443 whole entry T412E): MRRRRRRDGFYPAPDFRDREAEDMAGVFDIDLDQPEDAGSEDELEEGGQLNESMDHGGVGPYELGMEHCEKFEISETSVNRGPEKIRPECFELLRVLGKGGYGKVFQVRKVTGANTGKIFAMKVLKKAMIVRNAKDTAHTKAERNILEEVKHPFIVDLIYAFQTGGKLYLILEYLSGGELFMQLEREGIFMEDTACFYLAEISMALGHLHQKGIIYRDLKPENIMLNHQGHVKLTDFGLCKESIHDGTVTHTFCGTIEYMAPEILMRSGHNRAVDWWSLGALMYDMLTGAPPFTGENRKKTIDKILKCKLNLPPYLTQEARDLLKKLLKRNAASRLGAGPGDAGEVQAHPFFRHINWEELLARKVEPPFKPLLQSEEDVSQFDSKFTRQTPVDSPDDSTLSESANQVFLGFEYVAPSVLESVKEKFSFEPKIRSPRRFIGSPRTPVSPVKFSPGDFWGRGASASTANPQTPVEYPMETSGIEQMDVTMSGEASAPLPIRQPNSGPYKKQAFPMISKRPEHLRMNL

In the case of `N#Cc1c(N)ncnc1N1CC[C@@H](c2nc(-c3ccc(F)c(C(F)(F)F)c3)cn2CCN2CCC2)[C@@H](F)C1` (racemic) [Compound 1, 4-Amino-6-{3,4-cis-4-[1-(2-azetidin-1-yl-ethyl)-4-(4-fluoro-3-trifluoromethyl-phenyl)-1H-imidazol-2-yl]-3-fluoro-piperidin-1-yl}-pyrimidine-5-carbonitrile], the IC50 (His-AKT (Full Length)) is reported as under 1 nM and the IC50 (P70S6K (T412E mutant)) is reported as under 1 nM.

Work on `NC(=O)c1c(N)ncnc1N1CC[C@@H](c2nc(-c3ccc(F)c(C(F)(F)F)c3)cn2CCN2CCC2)[C@@H](F)C1` (racemic) [Compound 2, 4-Amino-6-{3,4-cis-4-{1-(2-azetidin-1-yl-ethyl)-4-(4-fluoro-3-trifluoromethyl-phenyl)-1H-imidazol-2-yl}-3-fluoro-piperidin-1-yl}-pyrimidine-5-carboxamide] yielded an IC50 (His-AKT (Full Length)) of under 1 nM and an IC50 (P70S6K (T412E mutant)) of under 1 nM.

`C[C@H]1CN(c2ncnc(N)c2C#N)CC[C@H]1c1nc(-c2ccc(F)c(C(F)(F)F)c2)cn1CCN1CCC1` (racemic) [Compound 5, 4-Amino-6-{3,4-cis-4-[1-(2-azetidin-1-yl-ethyl)-4-(4-fluoro-3-trifluoromethyl-phenyl)-1H-imidazol-2-yl]-3-methyl-piperidin-1-yl}-pyrimidine-5-carbonitrile] showed an IC50 (His-AKT (Full Length)) of over 10 nM and an IC50 (P70S6K (T412E mutant)) of 1 to 10 nM.

With `C[C@H]1CN(c2ncnc(N)c2C(N)=O)CC[C@H]1c1nc(-c2ccc(F)c(C(F)(F)F)c2)cn1CCN1CCC1` (racemic) [Compound 6, 4-Amino-6-{3,4-cis-4-[1-(2-azetidin-1-yl-ethyl)-4-(4-fluoro-3-trifluoromethyl-phenyl)-1H-imidazol-2-yl]-3-methyl-piperidin-1-yl}-pyrimidine-5-carboxamide] the IC50 (His-AKT (Full Length)) was over 10 nM and the IC50 (P70S6K (T412E mutant)) was over 10 nM.

With `N#Cc1c(N)ncnc1N1CC[C@H](c2nc(-c3ccc(F)c(C(F)(F)F)c3)cn2CCN2CCC2)[C@@H](F)C1` (racemic) [Compound 7, 4-amino-6-{3,4-trans-4-[1-(2-azetidin-1-yl-ethyl)-4-(4-fluoro-3-trifluoromethyl-phenyl)-1H-imidazol-2-yl]-3-fluoro-piperidin-1-yl}-pyrimidine-5-carbonitrile] the IC50 (His-AKT (Full Length)) was over 10 nM and the IC50 (P70S6K (T412E mutant)) was 1 to 10 nM.

With `NC(=O)c1c(N)ncnc1N1CC[C@@H](c2nc(-c3ccc(F)c(C(F)(F)F)c3)cn2CCN2CCC2)[C@H](F)C1` (racemic) [Compound 8, 4-Amino-6-{3,4-trans-4-[1-(2-azetidin-1-yl-ethyl)-4-(4-fluoro-3-trifluoromethyl-phenyl)-1H-imidazol-2-yl]-3-fluoro-piperidin-1-yl}-pyrimidine-5-carboxamide] the IC50 (His-AKT (Full Length)) was over 10 nM and the IC50 (P70S6K (T412E mutant)) was 1 to 10 nM.

With `Cc1cc(-c2cn(CCN(C)C)c([C@@H]3CCN(c4ncnc(N)c4C#N)C[C@@H]3F)n2)ccc1F` (racemic) [Compound 9] the IC50 (His-AKT (Full Length)) was 1 to 10 nM and the IC50 (P70S6K (T412E mutant)) was 1 to 10 nM.

Work on `Nc1ncnc(N2CC[C@@H](c3nc(-c4ccc(F)c(C(F)(F)F)c4)cn3CCN3CCC3)[C@@H](F)C2)c1Cl` (racemic) [Compound 10, 6-{3,4-cis-4-[1-(2-Azetidin-1-yl-ethyl)-4-(4-fluoro-3-trifluoromethyl-phenyl)-1H-imidazol-2-yl]-3-fluoro-piperidin-1-yl}-5-chloro-pyrimidin-4-ylamine] yielded an IC50 (His-AKT (Full Length)) of under 1 nM and an IC50 (P70S6K (T412E mutant)) of under 1 nM.

With `Nc1ncnc(N2CC[C@@H](c3nc(-c4ccc(F)c(C(F)(F)F)c4)cn3CCN3CCC3)[C@H](F)C2)c1Cl` (racemic) [Compound 11, 6-{3,4-trans-4-[1-(2-Azetidin-1-yl-ethyl)-4-(4-fluoro-3-trifluoromethyl-phenyl)-1H-imidazol-2-yl]-3-fluoro-piperidin-1-yl}-5-chloro-pyrimidin-4-ylamine] the IC50 (His-AKT (Full Length)) was 1 to 10 nM and the IC50 (P70S6K (T412E mutant)) was 1 to 10 nM.

For `Cc1cc(-c2cn(CCN(C)C)c([C@H]3CCN(c4ncnc(N)c4Cl)C[C@H]3F)n2)ccc1F` (racemic) [Compound 12, 5-chloro-6-{3,4-cis-4-[1-(2-dimethylamino-ethyl)-4-(4-fluoro-3-methyl-phenyl)-1H-imidazol-2-yl]-3-fluoro-piperidin-1-yl}-pyrimidin-4-ylamine], the IC50 (His-AKT (Full Length)) was 1 to 10 nM and the IC50 (P70S6K (T412E mutant)) was 1 to 10 nM.

Work on `CCc1c(N)ncnc1N1CC[C@@H](c2nc(-c3ccc(F)c(C(F)(F)F)c3)cn2CCN2CCC2)[C@@H](F)C1` (racemic) [Compound 13, 6-{3,4-cis-4-[1-(2-Azetidin-1-yl-ethyl)-4-(4-fluoro-3-trifluoromethyl-phenyl)-1H-imidazol-2-yl]-3-fluoro-piperidin-1-yl}-5-ethyl-pyrimidin-4-ylamine] yielded an IC50 (His-AKT (Full Length)) of 1 to 10 nM and an IC50 (P70S6K (T412E mutant)) of 1 to 10 nM.

`CN(C)CCn1cc(-c2ccc(F)c(C(F)(F)F)c2)nc1[C@@H]1CCN(c2ncnc(N)c2C#N)C[C@@H]1F` (racemic) [Compound 14, 4-Amino-6-{3,4-cis-4-[1-(2-dimethylamino-ethyl)-4-(4-fluoro-3-trifluoromethyl-phenyl)-1H-imidazol-2-yl]-3-fluoro-piperidin-1-yl}-pyrimidine-5-carbonitrile] was tested, and the IC50 (His-AKT (Full Length)) was 1 to 10 nM and the IC50 (P70S6K (T412E mutant)) was 1 to 10 nM.

`CN(C)CCn1cc(-c2ccc(F)c(C(F)(F)F)c2)nc1[C@@H]1CCN(c2ncnc(N)c2C(N)=O)C[C@@H]1F` (racemic) [Compound 15] was tested, and the IC50 (His-AKT (Full Length)) was over 10 nM and the IC50 (P70S6K (T412E mutant)) was 1 to 10 nM.

`CCOc1c(N)ncnc1N1CC[C@@H](c2nc(-c3ccc(F)c(C(F)(F)F)c3)cn2CCN2CCC2)[C@@H](F)C1` (racemic) [Compound 16, 6-{3,4-cis-4-[1-(2-Azetidin-1-yl-ethyl)-4-(4-fluoro-3-trifluoromethyl-phenyl)-1H-imidazol-2-yl]-3-fluoro-piperidin-1-yl}-5-ethoxy-pyrimidin-4-ylamine] was tested, and the IC50 (His-AKT (Full Length)) was 1 to 10 nM and the IC50 (P70S6K (T412E mutant)) was 1 to 10 nM.

Molecule `CC(C)c1c(N)ncnc1N1CC[C@@H](c2nc(-c3ccc(F)c(C(F)(F)F)c3)cn2CCN(C)C)[C@@H](F)C1` (racemic) [Compound 17, 6-{cis-4-[1-(2-Dimethylamino-ethyl)-4-(4-fluoro-3-trifluoromethyl-phenyl)-1H-imidazol-2-yl]-3-fluoro-piperidin-1-yl}-5-isopropyl-pyrimidin-4-ylamine] has an IC50 (His-AKT (Full Length)) of over 10 nM and an IC50 (P70S6K (T412E mutant)) of 1 to 10 nM.

`Cc1cc(-c2cn(CCN3CCC3)c([C@@H]3CCN(c4ncnc(N)c4C#N)C[C@@H]3F)n2)ccc1F` (racemic) [Compound 18, 4-Amino-6-{cis-4-[1-(2-azetidin-1-yl-ethyl)-4-(4-fluoro-3-methyl-phenyl)-1H-imidazol-2-yl]-3-fluoro-piperidin-1-yl}-pyrimidine-5-carbonitrile] showed an IC50 (His-AKT (Full Length)) of 1 to 10 nM and an IC50 (P70S6K (T412E mutant)) of 1 to 10 nM.

`Cc1cc(-c2cn(CCN3CCC3)c([C@@H]3CCN(c4ncnc(N)c4C(C)C)C[C@@H]3F)n2)ccc1F` (racemic) [Compound 24, 6-{cis-4-[1-(2-Azetidin-1-yl-ethyl)-4-(4-fluoro-3-methyl-phenyl)-1H-imidazol-2-yl]-3-fluoro-piperidin-1-yl}-5-isopropyl-pyrimidin-4-ylamine] gave an IC50 (His-AKT (Full Length)) of 1 to 10 nM and an IC50 (P70S6K (T412E mutant)) of 1 to 10 nM.

With `CN(C)CCn1cc(-c2ccc(F)c(C(F)(F)F)c2)nc1[C@@H]1CCN(c2ncnc(N)c2Cl)C[C@@H]1F` (racemic) [Compound 25] the IC50 (His-AKT (Full Length)) was 1 to 10 nM and the IC50 (P70S6K (T412E mutant)) was 1 to 10 nM.

For `CC(C)c1c(N)ncnc1N1CC[C@@H](c2nc(-c3ccc(F)c(C(F)(F)F)c3)c[nH]2)[C@@H](F)C1` (racemic) [Compound 26, 6-{cis-3-Fluoro-4-[4-(4-fluoro-3-trifluoromethyl-phenyl)-1H-imidazol-2-yl]-piperidin-1-yl}-5-isopropyl-pyrimidin-4-ylamine], the IC50 (His-AKT (Full Length)) was over 10 nM and the IC50 (P70S6K (T412E mutant)) was 1 to 10 nM.

In the case of `CC(C)c1c(N)ncnc1N1CC[C@@H](c2nc(-c3ccc(F)c(C(F)(F)F)c3)cn2CCN)[C@@H](F)C1` (racemic) [Compound 33, 6-{cis-4-[1-(2-Amino-ethyl)-4-(4-fluoro-3-trifluoromethyl-phenyl)-1H-imidazol-2-yl]-3-fluoro-piperidin-1-yl}-5-isopropyl-pyrimidin-4-ylamine], the IC50 (His-AKT (Full Length)) is reported as 1 to 10 nM and the IC50 (P70S6K (T412E mutant)) is reported as 1 to 10 nM.

`NCCn1cc(-c2ccc(F)c(C(F)(F)F)c2)nc1[C@@H]1CCN(c2ncnc(N)c2Cl)C[C@@H]1F` (racemic) [Compound 36] was tested, and the IC50 (His-AKT (Full Length)) was 1 to 10 nM and the IC50 (P70S6K (T412E mutant)) was 1 to 10 nM.

`Cc1cc(-c2cn(CCNC(C)C)c([C@@H]3CCN(c4ncnc(N)c4C(C)C)C[C@@H]3F)n2)ccc1F` (racemic) [Compound 37, 6-{cis-3-Fluoro-4-[4-(4-fluoro-3-methyl-phenyl)-1-(2-isopropylamino-ethyl)-1H-imidazol-2-yl]-piperidin-1-yl}-5-isopropyl-pyrimidin-4-ylamine] gave an IC50 (His-AKT (Full Length)) of 1 to 10 nM and an IC50 (P70S6K (T412E mutant)) of 1 to 10 nM.

From US9867826B2, “Heterocycles as modulators of kinase activity” (Merck Patent GmbH, priority 2013, dated 2018)
